Measurements from PubChem BioAssay (NCI).
Where “and” joins values, the source holds several entries; their conditions need not be identical. Identical values can stand only once.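 The compound was tested at five concentrations on cells cultured in 96-well plates, with a 48-hour exposure period. The concentration for 50% growth inhibition is given as GI50. The concentration for full growth arrest is given as TGI.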 Calls of active or inactive are those of the source. Rule as the data show it: active = GI50 below about 0.43 µM; inactive = the rest.

Columns and labels:
Assay in all cases: NCI tumour cell line growth inhibition, 48 h
DLD-1 colon = system: DLD-1 colon
DMS 114 small cell lung = system: DMS 114 small cell lung
DMS 273 small cell lung = system: DMS 273 small cell lung
KM20L2 colon = system: KM20L2 colon
M19-MEL melanoma = system: M19-MEL melanoma
SNB-78 CNS = system: SNB-78 CNS
XF 498 CNS = system: XF 498 CNS
HOP-18 NSCLC = system: HOP-18 NSCLC
RXF-631 renal = system: RXF-631 renal

SMILES	TGI (DLD-1 colon)	TGI (DMS 114 small cell lung)	TGI (DMS 273 small cell lung)	TGI (KM20L2 colon)	TGI (M19-MEL melanoma)	TGI (SNB-78 CNS) [µM]	TGI (XF 498 CNS)	TGI (HOP-18 NSCLC) [µM]	TGI (RXF-631 renal) [µM]	GI50 (DLD-1 colon)	GI50 (DMS 114 small cell lung)	GI50 (DMS 273 small cell lung)	outcome (KM20L2 colon)	GI50 (M19-MEL melanoma)	outcome (RXF-631 renal)	outcome (XF 498 CNS)	GI50 (HOP-18 NSCLC) [µM]	GI50 (KM20L2 colon) [µM]	GI50 (SNB-78 CNS) [µM]	GI50 (XF 498 CNS) [µM]
N#CC1CCCCCCCCCCC(=O)N(CCCl)C1=O (stereo not given)	> 100 µM	> 100 µM	> 100 µM	> 100 µM	> 100 µM	> 100	> 100 µM	–	–	–	–	–	–	–	–	–	–	–	–	–
COc1ccccc1NC(=O)CC(=O)N/N=C/c1ccc(N(CCC#N)S(=O)(=O)c2ccccc2)cc1	> 100 µM	> 100 µM	–	> 100 µM	> 100 µM	> 100	> 100 µM	> 100	–	–	–	–	–	–	–	–	–	–	–	–
N#Cc1cccc(/C=N/N=C(\N)NO)c1	> 100 µM	–	> 100 µM	–	> 100 µM	> 100	> 100 µM	> 100	–	–	–	–	–	–	–	–	–	–	–	–
O=Cc1c(O)c(C(=O)Nc2ccc3[nH]c(=O)[nH]c3c2)cc2ccccc12	> 100 µM	> 100 µM	> 100 µM	> 100 µM	> 100 µM	> 100	–	> 100	> 100	–	–	–	–	–	–	–	–	–	–	–
CC(=O)OCC1OC(n2c(-c3ccc(C)cc3)cc(-c3ccccc3)c(C#N)c2=O)C(OC(C)=O)C(OC(C)=O)C1OC(C)=O (stereo not given)	> 100 µM	> 100 µM	–	> 100 µM	> 100 µM	> 100	> 100 µM	–	> 100	–	–	–	–	–	–	–	–	–	–	–
N#CC1CC2(CCN1C(=O)c1ccccc1)OCCO2 (stereo not given)	> 100 µM	> 100 µM	> 100 µM	> 100 µM	> 100 µM	> 100	> 100 µM	> 100	–	–	–	–	–	–	–	–	–	–	–	–
COC(C)(C)C/C=C/C(C)=C/C=C/C(C)=C\C=C\C(C)=C\C=C\C=C(C)\C=C\C=C(C)\C=C\C=C(C)\C=C\CC(C)(C)OC	> 150 µg/mL	> 150 µg/mL	> 150 µg/mL	–	> 150 µg/mL	–	–	–	–	> 150 µg/mL	> 150 µg/mL	> 150 µg/mL	inactive	> 150 µg/mL	inactive	inactive	–	–	–	–
CC(C)OP(=O)(NC(=S)c1ccccc1)OC(C)C	> 100 µM	> 100 µM	> 100 µM	> 100 µM	> 100 µM	> 100	> 100 µM	–	–	–	–	–	–	–	–	–	–	–	–	–
NC(N)=NS(=O)(=O)c1ccc(NCCc2c3ccccc3nc3ccccc23)cc1	> 100 µM	> 100 µM	> 100 µM	> 100 µM	> 100 µM	–	–	–	> 100	–	–	–	–	–	–	–	–	–	–	–
Cc1cc2c(C)nn(Cc3ccc(Cl)cc3)c2c(C#N)c1C	–	–	> 100 µM	> 100 µM	> 100 µM	> 100	> 100 µM	> 100	> 100	–	–	–	–	–	–	–	–	–	–	–
C=C(c1ccccc1)[C@@]1(O)CC[C@@H]1N(CC#N)Cc1ccccc1	36.4 µM	34.3 µM	39.7 µM	> 100 µM	57.1 µM	> 85.2	–	28	–	–	–	–	–	–	–	–	–	–	–	–
NCCCNCCCCNC(=O)C(O)NC(=O)CCCCCCN=C(N)N (stereo not given)	750 µM	581 µM	> 750 µM	734 µM	750 µM	> 750	119 µM	744	–	–	–	–	–	–	–	–	–	–	–	–
S=P(N1CC1)(N1CC1)N1CC1	77.2 µM and 682 µM	36.1 µM and 249 µM	37.1 µM and 290 µM	62 µM and 464 µM	63 µM and 438 µM	960	35.8 µM and 230 µM	640	–	33.2 µM	5.78 µM	2.76 µM	–	25.7 µM	–	–	41.5	30	46.1	13.2
Cc1cc(C)c(-n2c(-c3ccc(Br)cc3)cs/c2=N\N=C2C=C(C(C)(C)C)C(=O)C(C(C)(C)C)=C2)c(C)c1	> 100 µM	> 100 µM	> 100 µM	> 100 µM	> 100 µM	> 100	> 100 µM	> 100	> 100	–	–	–	–	–	–	–	–	–	–	–
Cc1cc(Cl)ccc1NC(=O)CC1SC(=Nc2ccccc2Cl)NC1=O (stereo not given)	> 100 µM	67.5 µM	> 100 µM	88.2 µM	> 100 µM	> 100	> 100 µM	> 100	> 100	–	–	–	–	–	–	–	–	–	–	–
CC(C)CC(NC(=O)OC(C)(C)C)C(=O)Nc1ccc(Nc2nc(F)nc(-c3c4ccccc4cn3C)n2)cc1 (stereo not given)	> 58 µM	> 72.4 µM	> 100 µM	> 100 µM	> 100 µM	> 68	> 100 µM	> 100	–	–	–	–	–	–	–	–	–	–	–	–
O=C1C(=Cc2c(O)cc(O)cc2O)C(=O)c2ccccc21	> 55.2 µM	> 100 µM	> 100 µM	> 57.6 µM	> 53 µM	62.1	–	58.7	–	–	–	–	–	–	–	–	–	–	–	–
CC(C)(c1ccccc1)c1ccc(OC#N)cc1	> 62.5 µM	> 53.9 µM	30.7 µM	> 100 µM	> 100 µM	> 100	> 100 µM	> 100	–	–	–	–	–	–	–	–	–	–	–	–
Cn1cc2ccccc2c1-c1nc(F)nc(OCC(=O)[C@H]2CCC3[C@@H]4CCC5=CC(=O)CC[C@]5(C)C4[C@@H](O)C[C@@]32C)n1 (stereo not given in full)	22.5 µM	22.5 µM	36.1 µM	> 57 µM	14.9 µM	47.3	21.9 µM	29.2	6.82	–	–	–	–	–	–	–	–	–	–	–
